Measured values published in USRE39221E1, “Composition comprising a tramadol material and acetaminophen and its use” (priority 1991, dated 2006).
Read-outs that look alike come from different tables or passages of the source.

Tested on: acetylcholine-induced abdominal constriction
Experiment: prevention of acetylcholine-induced abdominal constriction in mice (analgesic activity)
Type: in vivo, mice (male CD1)
Conditions: for ED50: Mus musculus, po, 0.5 h; for analgesia: 30 min
Protocol: Male CD1 mice (weighing from 18-24 g) were utilized in determining the analgesic effects associated with the compositions of the invention. The mice were all dosed orally with tramadol hydrochloride (calculated as the base), which was completely dissolved in distilled water, and acetaminophen (calculated as the base), which was completely dissolved in distilled water or in distilled water containing 2% by volume of Tween 80 containing 100% polysorbate 80. The dosing volume was 10 mL/kg.
The procedure used in detecting and comparing the analgesic activity of different classes of analgesia drugs for which there is a good correlation with human efficacy is the prevention of acetylcholine-induced abdominal constriction in mice (H. Collier et al., Br. J. Pharmacol., 32, 295 (1968)).
Mice, intubated with various doses of tramadol hydrochloride alone, acetaminophen alone, combined doses of tramadol hydrochloride and acetaminophen, or vehicle such as distilled water, or distilled water containing 2% by volume of Tween 80, were injected intraperitoneally with a challenge dose of acetylcholine bromide. The acetylcholine was completely dissolved in distilled water at a concentration of […] and injected at the rate of 0.20 mL/20 g. For scoring purposes an “abdominal constriction” was defined as a contraction of the abdominal musculature accompanied by arching of the back and extension of the limbs. The mice were observed 10 minutes for the presence or absence of the abdominal constriction response beginning immediately after receiving the acetylcholine dose, which was 30 minutes after receiving the oral administration of tramadol hydrochloride, acetaminophen, combined doses of tramadol hydrochloride and acetaminophen, or vehicle. Each mouse was used only once.
The analysis of possible superadditivity for the compositions at each fixed ratio was determined as disclosed by R. J. Tallarida et al., Life Sci., 45, 947 (1989). This procedure involved the determination of the total amount in the mixture that is required to produce a specified level of effect, such as 50% (ED50mix), and the corresponding total amount that would be expected under simple additivity (ED50add). Where it was established that ED50mix<ED50add for a specific fixed-ratio, then that composition ratio was superadditive. Both the quantities ED50mix and ED50add were random variables; ED50mix was estimated from the dose-response curve for a specific fixed-ratio; ED50add was obtained by combining the ED50 estimates for the two drugs under additivity. ED50mix was then compared to ED50add via a Student's t-test.
The interaction between tramadol and acetaminophen was determined at precise dosage ratios of tramadol hydrochloride and acetaminophen. Multiple (typically 4-6) coded doses of each selected combination were studied for analgesic effectiveness after 30 minutes using an experimental design which permitted the complete randomization of the separate dosage forms tested.
In FIG. 1, the diagonal line joining the ED50 values of the two drugs given separately represents the simple additivity of effects at different component ratios. The dotted lines adjacent to the diagonal line define the 95% confidence interval. ED50 values falling under the curve (between the line and the origin) indicate superadditivity, i.e., unexpected enhancement of effects. The diagonal dashed lines radiating from the origin represent the dose ratios of APAP to tramadol hydrochloride used in mice receiving the combined drug dosages. The bars through the ED50 points for the tramadol and APAP composition represent the 95% confidence intervals of the ED50 value.

Question: With `COc1cccc([C@@]2(O)CCCC[C@@H]2CN(C)C)c1` (racemic) [tramadol only, (1RS, 2RS)-[(dimethylamino)-methyl]-1-(3-methoxy-phenyl)cyclohexanol] as the compound, how does the ED50 (read-out: ED50 30 min (95% CI's) Tramadol) read?
Answer: 5.5 mg/kg

Question: And the analgesia (dose Tramadol 2 + APAP 0 mg/kg, p.o.)?
Answer: 3/15

Question: What about the analgesia (dose Tramadol 3 + APAP 0 mg/kg, p.o.) of the same compound?
Answer: 4/15

Question: And the analgesia (dose Tramadol 4 + APAP 0 mg/kg, p.o.)?
Answer: 14/45

Question: What about the analgesia (dose Tramadol 6 + APAP 0 mg/kg, p.o.) of the same compound?
Answer: 20/45

Question: What about the analgesia (dose Tramadol 8 + APAP 0 mg/kg, p.o.) of the same compound?
Answer: 40/60

Question: What about the analgesia (dose Tramadol 10 + APAP 0 mg/kg, p.o.) of the same compound?
Answer: 15/15

Question: And the analgesia (dose Tramadol 16 + APAP 0 mg/kg, p.o.)?
Answer: 14/15

Question: Which ED50 (APAP component of the ED50, p.o., 30 min after dosing, read-out: ED50 30 min (95% CI's) APAP) does the source give for `CC(=O)Nc1ccc(O)cc1` [APAP only, acetaminophen] here?
Answer: 164 mg/kg

Question: What about the analgesia (dose Tramadol 0 + APAP 30 mg/kg, p.o.) of the same compound?
Answer: 2/15

Question: And the analgesia (dose Tramadol 0 + APAP 40 mg/kg, p.o.)?
Answer: 12/43

Question: And the analgesia (dose Tramadol 0 + APAP 50 mg/kg, p.o.)?
Answer: 1/15

Question: And the analgesia (dose Tramadol 0 + APAP 60 mg/kg, p.o.)?
Answer: 8/30

Question: What about the analgesia (dose Tramadol 0 + APAP 80 mg/kg, p.o.) of the same compound?
Answer: 23/60

Question: What about the analgesia (dose Tramadol 0 + APAP 100 mg/kg, p.o.) of the same compound?
Answer: 13/30

Question: And the analgesia (dose Tramadol 0 + APAP 120 mg/kg, p.o.)?
Answer: 13/30

Question: And the analgesia (dose Tramadol 0 + APAP 160 mg/kg, p.o.)?
Answer: 10/30

Question: And the analgesia (dose Tramadol 0 + APAP 200 mg/kg, p.o.)?
Answer: 13/25

Question: And the analgesia (dose Tramadol 0 + APAP 240 mg/kg, p.o.)?
Answer: 14/25

Question: And the analgesia (dose Tramadol 0 + APAP 400 mg/kg, p.o.)?
Answer: 12/15

Question: And the analgesia (dose Tramadol 0 + APAP 800 mg/kg, p.o.)?
Answer: 13/15
